The target in the assay is CXCR7 (Homo sapiens (Human), UniProt P25106). In words: PathHunter CHO-K1 CXCR7 β-arrestin assay (agonistic activity). The class given is cell-based. Particulars: β-arrestin recruitment in PathHunter CHO-K1 CXCR7 β-arrestin cells, 90 minutes at 37° C., geometric mean values. On the procedure:
The CXCI12 receptor and CXCR7 agonistic activities of the compounds of formula (I) are determined in accordance with the following experimental method.
The assay is using the PathHunter™ CHO-K1 CXCR7 β-arrestin cell line from DiscoverX. The system is based on the Enzyme Fragment Complementation Technology. Two complementing fragments of the β-galactosidase enzyme are expressed within stably transfected cells. The larger portion of β-gal, termed EA for Enzyme Acceptor, is fused to the C-terminus of b-arrestin 2. The smaller fragment, termed ProLink™ tag, is fused to CXCR7 at the C-terminus. Upon activation, b-arrestin is recruited which forces the interaction of ProLink and EA, allowing complementation of the two fragments of b-gal and the formation of a functional enzyme which is capable of hydrolysing the substrate and generating a chemiluminescent signal.
CHO-K1 CXCR7 β-arrestin cells are detached from culture dishes with a cell dissociation buffer (Invitrogen, #13151-014) and collected in growing medium (F12 HAMS 90% (v/v)/FCS 10% (v/v), Penicillin/streptomycin 1% (v/v)). 5000 cells per well (in 20 μl) are seeded in a 384 well plate (white-walled, clear bottom; BD Falcon #353274). The plate is incubated at 37° C./5% CO2 for 24 hours. Medium is then replaced by 20 μl OPTIMEM (Invitrogen #31985) for 3 to 4 hours. Test compounds are dissolved at 10 mM in DMSO and serially diluted in DMSO to 200× of the final concentration for dose response curves. Compounds are then diluted 1:33.3 in HBSS1X. 5 μl/well of HBSS1X/20 mM HEPES/0.2% BSA are added to the assay plate followed by addition of 5 μl/well of diluted compounds. CXCL12 (Peprotech #300-28A) may be used as a reference agonist. The plate is incubated for 90 minutes at 37° C. 12 μl of detection reagent (Path Hunter Detection Kit, DiscoveRx, #93-0001) is transferred to the assay plate and to the plate is incubated for 1 hour at room temperature. Luminescent signal is read in a microplate reader (FLUOstar Optima, bmg). The calculated EC50 values may fluctuate depending on the daily cellular assay performance. Fluctuations of this kind are known to those skilled in the art. Average EC50 values from several measurements are given as geometric mean values.
On the technique in general: Activated receptors often draw arrestin, which recruitment assays turn into a signal.

Sequence of CXCR7 (P25106 whole entry): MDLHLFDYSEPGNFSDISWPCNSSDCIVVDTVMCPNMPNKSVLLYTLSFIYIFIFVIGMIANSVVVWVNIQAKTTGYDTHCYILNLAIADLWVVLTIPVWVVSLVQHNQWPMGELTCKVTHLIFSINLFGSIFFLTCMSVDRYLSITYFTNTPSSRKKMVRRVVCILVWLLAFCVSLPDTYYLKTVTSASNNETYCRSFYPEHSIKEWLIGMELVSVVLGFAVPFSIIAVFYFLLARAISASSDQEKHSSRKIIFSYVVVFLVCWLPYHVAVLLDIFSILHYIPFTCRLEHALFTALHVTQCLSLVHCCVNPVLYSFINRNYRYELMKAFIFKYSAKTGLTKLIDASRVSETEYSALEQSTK
Sequence of CXCR7 (P32121 whole entry partner): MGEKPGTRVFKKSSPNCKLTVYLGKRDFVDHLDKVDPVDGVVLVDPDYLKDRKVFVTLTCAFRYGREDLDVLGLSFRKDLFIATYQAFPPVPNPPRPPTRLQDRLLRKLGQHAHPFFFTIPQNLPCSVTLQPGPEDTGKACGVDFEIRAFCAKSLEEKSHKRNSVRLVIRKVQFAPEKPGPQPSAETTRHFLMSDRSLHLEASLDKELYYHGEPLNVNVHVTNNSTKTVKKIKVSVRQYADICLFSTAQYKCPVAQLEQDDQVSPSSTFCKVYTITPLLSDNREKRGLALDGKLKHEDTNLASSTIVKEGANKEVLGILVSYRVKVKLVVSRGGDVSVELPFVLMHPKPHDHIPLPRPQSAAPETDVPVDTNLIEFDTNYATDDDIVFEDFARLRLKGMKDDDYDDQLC

“2-(4-Cyclopropylmethyl-1-methyl-2,3,4,5-tetrahydro-1H-benzo[e][1,4]diazepin-9-ylamino)-N-(2-morpholin-4-yl-ethyl)-N-(3-trifluoromethyl-pyridin-2-ylmethyl)-acetamide [Example 55]” came in with an EC50 of 10 nM. The same measure for `CC(C)CN1CCOc2c(cccc2NCC(=O)N(CCN(C)C)Cc2ccccc2C(F)(F)F)C1` [Example 1, N-(2-Dimethylamino-ethyl)-2-(4-isobutyl-2,3,4,5-tetrahydro-benzo[f][1,4]oxazepin-9-ylamino)-N-(2-trifluoromethyl-benzyl)-acetamide]: 8 nM; for `CC(C)CN1CCOc2c(cccc2NCC(=O)N(CCN(C)C)Cc2ncccc2C(F)(F)F)C1` [Example 2, N-(2-Dimethylamino-ethyl)-2-(4-isobutyl-2,3,4,5-tetrahydro-benzo[f][1,4]oxazepin-9-ylamino)-N-(3-trifluoromethyl-pyridin-2-ylmethyl)-acetamide]: 3 nM. The molecule `CC(C)CN1CCOc2c(cccc2NCC(=O)N(CCN(C)C)Cc2ncccc2Cl)C1` [Example 3, N-(3-Chloro-pyridin-2-ylmethyl)-N-(2-dimethylamino-ethyl)-2-(4-isobutyl-2,3,4,5-tetrahydro-benzo[f][1,4]oxazepin-9-ylamino)-acetamide] showed an EC50 of 9 nM. The molecule `CCN1CCOc2c(cccc2NCC(=O)N(CCN(C)C)Cc2ncccc2Cl)C1` [Example 4, N-(3-Chloro-pyridin-2-ylmethyl)-N-(2-dimethylamino-ethyl)-2-(4-ethyl-2,3,4,5-tetrahydro-benzo[f][1,4]oxazepin-9-ylamino)-acetamide] showed an EC50 of 24 nM. Compared with the last molecule, the EC50 is about 2.7-fold higher.

For the molecule `CCN1CCOc2c(cccc2NCC(=O)N(CCN(C)C)Cc2ccccc2C(F)(F)F)C1` [Example 5, N-(2-Dimethylamino-ethyl)-2-(4-ethyl-2,3,4,5-tetrahydro-benzo[f][1,4]oxazepin-9-ylamino)-N-(2-trifluoromethyl-benzyl)-acetamide], the EC50 turned out to be 7 nM.

In turn, `CCCN1CCOc2c(cccc2NCC(=O)N(CCN(C)C)Cc2ncccc2Cl)C1` [Example 6, N-(3-Chloro-pyridin-2-ylmethyl)-N-(2-dimethylamino-ethyl)-2-(4-propyl-2,3,4,5-tetrahydro-benzo[f][1,4]oxazepin-9-ylamino)-acetamide] yielded a concentration giving a half-maximal response (EC50) of 19 nM. Against the preceding molecule, the EC50 is about 2.7-fold higher. The same measure for `CCCN1CCOc2c(cccc2NCC(=O)N(CCN(C)C)Cc2ccccc2C(F)(F)F)C1` [Example 7, N-(2-Dimethylamino-ethyl)-2-(4-propyl-2,3,4,5-tetrahydro-benzo[f][1,4]oxazepin-9-ylamino)-N-(2-trifluoromethyl-benzyl)-acetamide]: 4 nM; for `CC(C)CN1CCOc2c(cccc2NCC(=O)N(CCN(C)C)Cc2cccc(Br)c2)C1` [Example 8, N-(3-Bromo-benzyl)-N-(2-dimethylamino-ethyl)-2-(4-isobutyl-2,3,4,5-tetrahydro-benzo[f][1,4]oxazepin-9-ylamino)-acetamide]: 36 nM. The same measure for `COc1ccnc(CN(CCN(C)C)C(=O)CNc2cccc3c2OCCN(CC(C)C)C3)c1` [Example 9, N-(2-Dimethylamino-ethyl)-2-(4-isobutyl-2,3,4,5-tetrahydro-benzo[f][1,4]oxazepin-9-ylamino)-N-(4-methoxy-pyridin-2-ylmethyl)-acetamide]: 200 nM; for `CC(C)CN1CCOc2c(cccc2NCC(=O)N(CCN(C)C2CC2)Cc2ccccc2C(F)(F)F)C1` [Example 10, N-[2-(Cyclopropyl-methyl-amino)-ethyl]-2-(4-isobutyl-2,3,4,5-tetrahydro-benzo[f][1,4]oxazepin-9-ylamino)-N-(2-trifluoromethyl-benzyl)-acetamide]: 58 nM; for `CC(C)CN1CCOc2c(cccc2NCC(=O)N(CCN2CCCC2=O)Cc2ccccc2C(F)(F)F)C1` [Example 11, 2-(4-Isobutyl-2,3,4,5-tetrahydro-benzo[f][1,4]oxazepin-9-ylamino)-N-[2-(2-oxo-pyrrolidin-1-yl)-ethyl]-N-(2-trifluoromethyl-benzyl)-acetamide]: 190 nM. The same measure for `CC(C)CN1CCOc2c(cccc2NCC(=O)N(CCN2CCCC2)Cc2ccc(F)cc2F)C1` [Example 12, N-(2,4-Difluoro-benzyl)-2-(4-isobutyl-2,3,4,5-tetrahydro-benzo[f][1,4]oxazepin-9-ylamino)-N-(2-pyrrolidin-1-yl-ethyl)-acetamide]: 14 nM; for `CC(C)CN1CCOc2c(cccc2NCC(=O)N(CCN2CCC(F)(F)CC2)Cc2ncccc2Cl)C1` [Example 13, N-(3-Chloro-pyridin-2-ylmethyl)-N-[2-(4,4-difluoro-piperidin-1-yl)-ethyl]-2-(4-isobutyl-2,3,4,5-tetrahydro-benzo[f][1,4]oxazepin-9-ylamino)-acetamide]: 88 nM. In turn, `Cc1ccnc(CN(CCN(C)C)C(=O)CNc2cccc3c2OCCN(CC(C)C)C3)c1` [Example 14, N-(2-Dimethylamino-ethyl)-2-(4-isobutyl-2,3,4,5-tetrahydro-benzo[f][1,4]oxazepin-9-ylamino)-N-(4-methyl-pyridin-2-ylmethyl)-acetamide] came in with an EC50 of 76 nM. The same measure for `CC(C)CN1CCOc2c(cccc2NCC(=O)N(CCN2CCCC2)Cc2ccccc2Cl)C1` [Example 15, N-(2-Chloro-benzyl)-2-(4-isobutyl-2,3,4,5-tetrahydro-benzo[f][1,4]oxazepin-9-ylamino)-N-(2-pyrrolidin-1-yl-ethyl)-acetamide]: 11 nM; for `CC(C)CN1CCOc2c(cccc2NCC(=O)N(CCN2CCOCC2)Cc2ccccc2C(F)(F)F)C1` [Example 16, 2-(4-Isobutyl-2,3,4,5-tetrahydro-benzo[f][1,4]oxazepin-9-ylamino)-N-(2-morpholin-4-yl-ethyl)-N-(2-trifluoromethyl-benzyl)-acetamide]: 74 nM. On to `CC(C)CN1CCOc2c(cccc2NCC(=O)N(CCN(C)C)Cc2ccc(F)cc2C(F)(F)F)C1` [Example 17, N-(2-Dimethylamino-ethyl)-N-(4-fluoro-2-trifluoromethyl-benzyl)-2-(4-isobutyl-2,3,4,5-tetrahydro-benzo[f][1,4]oxazepin-9-ylamino)-acetamide], for which a half-maximal effect (EC50) was put at 59 nM. The same measure for `CC(C)CN1CCOc2c(cccc2NCC(=O)N(CCN(C)C)Cc2cccc(C(F)(F)F)c2)C1` [Example 18, N-(2-Dimethylamino-ethyl)-2-(4-isobutyl-2,3,4,5-tetrahydro-benzo[f][1,4]oxazepin-9-ylamino)-N-(3-trifluoromethyl-benzyl)-acetamide]: 53 nM. The value for `CC(C)CN1CCOc2c(cccc2NCC(=O)N(CCN(C)C)Cc2c(F)cccc2F)C1` [Example 19, N-(2,6-Difluoro-benzyl)-N-(2-dimethylamino-ethyl)-2-(4-isobutyl-2,3,4,5-tetrahydro-benzo[f][1,4]oxazepin-9-ylamino)-acetamide] was 12 nM; that for `CC(=O)N1CCOc2c(cccc2NCC(=O)N(CCN(C)C)Cc2ccccc2C(F)(F)F)C1` [Example 20, 2-(4-Acetyl-2,3,4,5-tetrahydro-benzo[f][1,4]oxazepin-9-ylamino)-N-(2-dimethylamino-ethyl)-N-(2-trifluoromethyl-benzyl)-acetamide] was 73 nM. The same measure for `CCN1CCNc2c(cccc2NCC(=O)N(CCN(C)C)Cc2ccccc2C(F)(F)F)C1` [Example 21, N-(2-(dimethylamino)ethyl)-2-((4-ethyl-2,3,4,5-tetrahydro-1H-benzo[e][1,4]diazepin-9-yl)amino)-N-(2-(trifluoromethyl)benzyl)acetamide]: 6 nM; for `CN(C)CCN(Cc1ccccc1C(F)(F)F)C(=O)CNc1cccc2c1CN(CC1CC1)CCO2` [Example 22, 2-(4-Cyclopropylmethyl-2,3,4,5-tetrahydro-benzo[f][1,4]oxazepin-6-ylamino)-N-(2-dimethylamino-ethyl)-N-(2-trifluoromethyl-benzyl)-acetamide]: 4 nM. In turn, `CN(C)CCN(Cc1ccccc1C(F)(F)F)C(=O)COc1cccc2c1CCN(CC1CC1)CC2` [Example 23, 2-(3-Cyclopropylmethyl-2,3,4,5-tetrahydro-1H-benzo[d]azepin-6-yloxy)-N-(2-dimethylamino-ethyl)-N-(2-trifluoromethyl-benzyl)-acetamide] gave an EC50 of 1 nM.

On to `COCC(=O)N1CCc2cccc(OCC(=O)N(CCN(C)C)Cc3ccccc3C(F)(F)F)c2CC1` [Example 24, N-(2-Dimethylamino-ethyl)-2-[3-(2-methoxy-acetyl)-2,3,4,5-tetrahydro-1H-benzo[d]azepin-6-yloxy]-N-(2-trifluoromethyl-benzyl)-acetamide], for which the EC50 was 3 nM.

In general, EC50 refers to the midpoint of the concentration-response curve. Low values mean an effect from little substance, high ones a need for much substance.

These data come from patent US10202368B2, “CXCR7 receptor modulators” (IDORSIA PHARMACEUTICALS LTD, priority 2014, dated 2019).
